Legend:
EGFR = EGFR (Homo sapiens, UniProt P00533); experiment: In vitro EGFR tyrosine kinase inhibitory assay (Z'-LYTE, SelectScreen); assay type: biochemical; conditions: for inhibition at 10 µM / Mean % inhibition EGFR: 10 µM single dose; for inhibition at 0.0001 µM: 0.1 nM compound; for inhibition at 0.0001 µM / inhibition at 0.001 µM / inhibition at 0.01 µM / inhibition at 0.1 µM / inhibition at 1 µM: 10 μM ATP, read-out: % Inhibition mean, EGFR (ErbB1); for inhibition at 0.001 µM: 1 nM compound; for inhibition at 0.01 µM: 10 nM compound; for inhibition at 0.1 µM: 100 nM compound; for inhibition at 1 µM: 1000 nM compound; for IC50: read-out: IC50 in enzyme assays EGFR
Description: (§1) The target compounds were evaluated for their in vitro inhibitory activities against EGFR, VEGFR-2, and HDAC6. The EGFR and VEGFR-2 inhibitory assays were performed at Thermo Fischer Scientific, Madison, WI, USA (SelectScreenServices@thermofisher.com). The HDAC inhibitory assays were performed at BPS Bioscience, San Diego, CA, USA (www.bpsbioscience.com). Initially, all of the synthesised target compounds were evaluated for their percent inhibitory activity against EGFR, VEGFR-2, and HDACs at 10 µM single dose concentration, in which their mean percent inhibition is summarised in (Figure 5, Tables 1 and [2]). Representative compounds were evaluated for their percent inhibitory activity against EGFR and VEGFR-2 at 6 different concentrations (0.1 nM, 1 nM, 10 nM, 100 nM, 1 µM, 10 µM) to subsequently calculate their IC50 values (Table 3). Additionally, all of the synthesised target compounds were submitted to the National Cancer Institute “NCI” Bethesda, Maryland, USA (www.dtp.nci.nih.gov), to evaluate theirs in vitro antiproliferative activities against NCI 60- cancer cell line panel.
(§2) In vitro enzyme inhibition determination for the synthesised compounds was carried out in Thermo Fischer Scientific, Madison, WI, USA (SelectScreenServices@thermofisher.com). The EGFR and VEGFR-2 tyrosine kinase % inhibitory activity at a single-dose concentration of 10 µM was performed initially then representative compounds were evaluated at single-dose concentrations of (0.1 nM, 1 nM, 10 nM, 100 nM, 1 µM) using ZYLTE technology. A fluorescence-based, coupled-enzyme format is employed in the biochemical assay and depends on the sensitivity of proteolytic cleavage to non-phosphorylated and phosphorylated peptides. Then IC50 values for selected compounds were determined by GraphPad Prism at Misr international university.

VEGFR-2 = VEGFR-2 (Homo sapiens, UniProt P35968); experiment: In vitro VEGFR-2 tyrosine kinase inhibitory assay (Z'-LYTE, SelectScreen); assay type: biochemical; conditions: for inhibition at 0.0001 µM: 0.1 nM compound; for inhibition at 0.0001 µM / inhibition at 0.001 µM / inhibition at 0.01 µM / inhibition at 0.1 µM / inhibition at 1 µM: 10 μM ATP, read-out: % Inhibition mean, KDR (VEGFR2); for inhibition at 0.001 µM: 1 nM compound; for inhibition at 0.01 µM: 10 nM compound; for inhibition at 0.1 µM: 100 nM compound; for inhibition at 1 µM: 1000 nM compound; for IC50: read-out: IC50 in enzyme assays VEGFR-2
Description: as §1, §2

HDAC6 = target: T1, HDAC6 (Homo sapiens, UniProt Q9UBN7); experiment: In vitro HDAC6 inhibitory assay (BPS Bioscience, fluorogenic); assay type: biochemical; conditions: 10 µM
T1 construct: purchased BPS Bioscience 50006
T1 sequence (Q9UBN7 1-1215): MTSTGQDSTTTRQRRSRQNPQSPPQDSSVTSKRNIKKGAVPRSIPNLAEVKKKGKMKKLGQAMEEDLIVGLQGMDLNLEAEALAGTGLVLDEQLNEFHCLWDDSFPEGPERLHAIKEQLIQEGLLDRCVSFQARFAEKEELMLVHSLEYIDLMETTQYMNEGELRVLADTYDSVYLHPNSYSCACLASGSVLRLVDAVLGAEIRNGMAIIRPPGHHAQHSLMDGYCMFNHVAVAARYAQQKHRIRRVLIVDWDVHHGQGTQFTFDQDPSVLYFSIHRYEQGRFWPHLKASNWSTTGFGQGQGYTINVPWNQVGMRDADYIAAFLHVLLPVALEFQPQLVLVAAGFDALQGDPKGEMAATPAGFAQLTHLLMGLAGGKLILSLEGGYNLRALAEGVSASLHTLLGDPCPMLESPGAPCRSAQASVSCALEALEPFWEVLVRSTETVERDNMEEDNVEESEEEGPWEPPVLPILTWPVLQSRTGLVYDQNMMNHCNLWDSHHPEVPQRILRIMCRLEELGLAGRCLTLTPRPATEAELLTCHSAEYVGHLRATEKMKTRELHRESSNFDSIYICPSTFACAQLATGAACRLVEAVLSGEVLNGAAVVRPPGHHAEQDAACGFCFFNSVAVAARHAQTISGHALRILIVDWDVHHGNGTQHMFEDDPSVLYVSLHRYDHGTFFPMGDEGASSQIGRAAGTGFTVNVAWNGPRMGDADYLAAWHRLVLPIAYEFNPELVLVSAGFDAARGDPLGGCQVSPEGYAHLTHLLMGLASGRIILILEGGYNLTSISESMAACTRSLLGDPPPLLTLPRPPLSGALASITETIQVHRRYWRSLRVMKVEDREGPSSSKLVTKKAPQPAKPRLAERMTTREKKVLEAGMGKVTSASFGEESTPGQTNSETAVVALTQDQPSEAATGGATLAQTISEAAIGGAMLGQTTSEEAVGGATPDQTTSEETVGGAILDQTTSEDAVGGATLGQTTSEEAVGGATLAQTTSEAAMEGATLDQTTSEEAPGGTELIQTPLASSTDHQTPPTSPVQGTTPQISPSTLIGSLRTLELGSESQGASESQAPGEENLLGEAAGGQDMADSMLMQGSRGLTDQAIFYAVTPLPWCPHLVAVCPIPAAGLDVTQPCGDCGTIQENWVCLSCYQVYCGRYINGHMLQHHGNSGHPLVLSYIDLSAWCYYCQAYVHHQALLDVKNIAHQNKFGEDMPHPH
Description: (1 picture or pasted object on this page, not shown here)
HDAC activity assays were performed in duplicates at each concentration. The

full NCI 60 cell panel = experiment: NCI one-dose screen, whole panel statistics; assay type: cell-based, human; conditions: 1.00E-5 Molar; for Mean Growth Percent: mean over panel
Description: All of the synthesised structures were selected and submitted to NCI based on computer modelling techniques and the degree of diversity of structures for the evaluation of their antiproliferative activity. The 20 synthesised compounds were selected with their respective NCI codes [NCS D-820157- NCS D-820176] for the inhibition percent assay at an initial single dose of 10 μM on the full NCI 60 cell panel, where the mean graph of the percent growth for all compounds on the full NCI cell panel is evaluated, compared to the untreated control cells (Supplementary Material). In vitro cell line inhibition % of all synthesised compounds is represented in (Table 1 of Supplementary Material).
All of the synthesised compounds (20) were submitted to NCI and selected for in vitro anticancer assay against a panel of 60 cancer cell lines. The methodology of assay and calculations is as reported.

Chain of VEGFR-2 (P35968 20-1356): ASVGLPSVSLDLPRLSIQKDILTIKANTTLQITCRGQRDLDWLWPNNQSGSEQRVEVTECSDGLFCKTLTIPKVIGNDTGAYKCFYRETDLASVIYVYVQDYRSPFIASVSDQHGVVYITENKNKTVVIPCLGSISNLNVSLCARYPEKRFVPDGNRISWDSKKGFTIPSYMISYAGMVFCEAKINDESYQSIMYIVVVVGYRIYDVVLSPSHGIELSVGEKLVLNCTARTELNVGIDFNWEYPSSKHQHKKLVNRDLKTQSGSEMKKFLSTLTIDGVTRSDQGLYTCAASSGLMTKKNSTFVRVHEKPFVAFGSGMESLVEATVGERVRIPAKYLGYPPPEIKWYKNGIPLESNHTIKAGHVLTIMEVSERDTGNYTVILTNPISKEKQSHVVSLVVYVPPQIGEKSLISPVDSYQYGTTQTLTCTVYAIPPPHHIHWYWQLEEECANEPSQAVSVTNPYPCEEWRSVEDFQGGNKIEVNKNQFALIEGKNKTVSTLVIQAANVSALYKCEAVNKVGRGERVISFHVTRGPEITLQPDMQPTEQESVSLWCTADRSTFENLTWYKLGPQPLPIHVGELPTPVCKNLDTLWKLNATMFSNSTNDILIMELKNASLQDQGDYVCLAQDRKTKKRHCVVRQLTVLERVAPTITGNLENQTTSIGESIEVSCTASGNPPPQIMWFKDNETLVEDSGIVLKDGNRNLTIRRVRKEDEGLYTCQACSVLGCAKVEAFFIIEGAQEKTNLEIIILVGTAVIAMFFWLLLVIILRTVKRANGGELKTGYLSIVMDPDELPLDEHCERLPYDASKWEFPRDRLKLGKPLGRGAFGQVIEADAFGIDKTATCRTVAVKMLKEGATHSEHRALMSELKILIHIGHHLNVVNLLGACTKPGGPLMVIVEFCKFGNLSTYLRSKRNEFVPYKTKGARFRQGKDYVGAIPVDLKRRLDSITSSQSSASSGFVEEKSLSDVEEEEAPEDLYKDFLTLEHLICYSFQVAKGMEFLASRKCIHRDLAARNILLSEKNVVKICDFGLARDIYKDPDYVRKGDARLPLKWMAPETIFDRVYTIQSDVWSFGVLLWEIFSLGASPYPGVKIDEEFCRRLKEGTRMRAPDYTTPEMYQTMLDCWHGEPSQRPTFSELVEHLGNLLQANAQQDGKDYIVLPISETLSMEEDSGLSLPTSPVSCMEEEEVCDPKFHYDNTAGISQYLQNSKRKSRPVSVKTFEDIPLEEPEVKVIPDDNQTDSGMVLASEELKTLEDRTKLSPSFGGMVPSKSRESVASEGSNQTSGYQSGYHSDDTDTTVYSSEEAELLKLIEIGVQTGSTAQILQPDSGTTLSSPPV
Chain of EGFR (P00533 25-1210): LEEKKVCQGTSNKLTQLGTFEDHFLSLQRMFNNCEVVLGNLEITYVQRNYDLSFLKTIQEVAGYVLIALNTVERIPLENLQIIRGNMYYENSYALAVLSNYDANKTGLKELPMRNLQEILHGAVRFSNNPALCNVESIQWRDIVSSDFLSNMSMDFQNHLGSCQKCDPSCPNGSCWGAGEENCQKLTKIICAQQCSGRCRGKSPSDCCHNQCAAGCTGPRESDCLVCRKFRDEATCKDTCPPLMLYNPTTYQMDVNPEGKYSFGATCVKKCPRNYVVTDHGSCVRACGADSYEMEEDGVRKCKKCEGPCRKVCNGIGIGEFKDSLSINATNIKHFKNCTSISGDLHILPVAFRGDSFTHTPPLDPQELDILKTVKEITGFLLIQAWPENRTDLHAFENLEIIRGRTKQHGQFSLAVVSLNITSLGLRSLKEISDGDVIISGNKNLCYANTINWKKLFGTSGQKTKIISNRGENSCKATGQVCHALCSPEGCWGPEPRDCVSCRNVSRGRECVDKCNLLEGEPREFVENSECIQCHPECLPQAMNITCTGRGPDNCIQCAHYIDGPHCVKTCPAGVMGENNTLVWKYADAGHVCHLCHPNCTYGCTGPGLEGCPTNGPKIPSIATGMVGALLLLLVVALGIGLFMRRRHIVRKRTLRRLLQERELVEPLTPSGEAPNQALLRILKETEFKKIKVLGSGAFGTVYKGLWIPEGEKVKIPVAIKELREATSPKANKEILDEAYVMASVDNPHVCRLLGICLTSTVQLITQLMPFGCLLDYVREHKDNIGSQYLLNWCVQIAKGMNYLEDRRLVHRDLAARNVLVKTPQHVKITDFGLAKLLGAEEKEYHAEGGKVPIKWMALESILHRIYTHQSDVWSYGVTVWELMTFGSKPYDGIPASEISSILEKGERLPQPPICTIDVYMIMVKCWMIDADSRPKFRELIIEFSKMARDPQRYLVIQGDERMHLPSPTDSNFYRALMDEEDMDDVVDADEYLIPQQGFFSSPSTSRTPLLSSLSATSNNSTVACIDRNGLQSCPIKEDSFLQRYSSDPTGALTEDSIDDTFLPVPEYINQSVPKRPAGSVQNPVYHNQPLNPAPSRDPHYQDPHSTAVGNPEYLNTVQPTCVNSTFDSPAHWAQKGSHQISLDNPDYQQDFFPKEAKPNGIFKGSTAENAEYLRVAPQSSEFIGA

| Structure (SMILES) | inhibition at 10 µM (EGFR) [%] | inhibition at 10 µM (VEGFR-2; 10 µM single dose) [%] | inhibition at 10 µM (HDAC6) [%] | Delta (one dose mean graph) (full NCI 60 cell panel) [%] | Range (one dose mean graph) (full NCI 60 cell panel) [%] | Mean Growth Percent (full NCI 60 cell panel) [%] | melting point [°C] | inhibition at 0.0001 µM (EGFR) [%] | inhibition at 0.001 µM (EGFR) [%] | inhibition at 0.01 µM (EGFR) [%] | inhibition at 0.1 µM (EGFR) [%] | inhibition at 1 µM (EGFR) [%] | Mean % inhibition EGFR (EGFR) [%] | IC50 (EGFR) [nM] | Mean % inhibition HDAC6 (HDAC6) [%] | further results |
| --- | --- | --- | --- | --- | --- | --- | --- | --- | --- | --- | --- | --- | --- | --- | --- | --- |
| Cc1c(C(=O)NCCC(=O)NO)sc2ncnc(Nc3ccccc3)c12 [Compound 19b, N-(3-(hydroxyamino)-3-oxopropyl)-5-methyl-4-(phenylamino)thieno[2,3-d]pyrimidine-6-carboxamide] | 76 | 13 | 10 | 19.11 | 40.57 | 100.57 | 267 to 270 | – | – | – | – | – | – | – | – | – |
| Cc1c(C(=O)NO)sc2ncnc(Nc3ccc(Cl)cc3)c12 [Compound 15c, 4–(4-chlorophenylamino)-N-hydroxy-5-methylthieno[2,3-d]pyrimidine-6-carboxamide] | – | 87 | 9 | 28.53 | 83.38 | 99.73 | 349 | 0 | 5 | 34 | 81 | 95 | 97 | 19 | 7 | inhibition at 0.0001 µM (VEGFR-2): 7%; inhibition at 0.001 µM (VEGFR-2): 4%; inhibition at 0.01 µM (VEGFR-2): 7%; inhibition at 0.1 µM (VEGFR-2): 15%; inhibition at 1 µM (VEGFR-2): 39%; IC50 (VEGFR-2): 5580 nM |
| Cc1c(C(=O)NCCCC(=O)NO)sc2ncnc(Nc3ccc(F)c(Cl)c3)c12 [Compound 20d, 4–(3-chloro-4-fluorophenylamino)-N-(4-(hydroxyamino)-4-oxobutyl)-5-methylthieno[2,3-d]pyrimidine-6-carboxamide] | 97 | 20 | – | 26.89 | 47.82 | 103.21 | 244 to 246 | 1 | 5 | 14 | 58 | 93 | 96 | 68 | 9 | – |
| Cc1c(C(=O)NCCCC(=O)NO)sc2ncnc(Nc3ccc(NC(=O)Nc4cccc(C(F)(F)F)c4)cc3)c12 [Compound 12c, 1–(4-(6-((4-(hydroxyamino)-4-oxobutyl)carbamoyl)-5-methylthieno[2,3-d]pyrimidin-4-ylamino)phenyl)-3–(3-(trifluoromethyl)phenyl)urea] | 66 | 103 | 23 | 33.40 | 59.27 | 104.16 | 215 to 217 | 6 | 4 | 4 | 7 | 34 | – | 1140 | – | inhibition at 0.0001 µM (VEGFR-2): 5%; inhibition at 0.001 µM (VEGFR-2): 10%; inhibition at 0.01 µM (VEGFR-2): 5%; inhibition at 0.1 µM (VEGFR-2): 36%; inhibition at 1 µM (VEGFR-2): 90%; Mean % inhibition VEGFR-2 (VEGFR-2; 10 µM single dose): 100%; IC50 (VEGFR-2): 185 nM |
| Cc1c(C(=O)NCCCC(=O)NO)sc2ncnc(Nc3ccccc3)c12 [Compound 20b, N-(4-(hydroxyamino)-4-oxobutyl)-5-methyl-4-(phenylamino)thieno[2,3-d]pyrimidine-6-carboxamide] | 92 | 25 | 56 | 14.62 | 40.59 | 102.91 | 205 | 2 | 1 | 7 | 35 | 85 | – | 155 | – | – |
| Cc1c(C(=O)NCCCC(=O)NO)sc2ncnc(Nc3ccc(Cl)cc3)c12 [Compound 20c, 4–(4-chlorophenylamino)-N-(4-(hydroxyamino)-4-oxobutyl)-5-methylthieno[2,3-d]pyrimidine-6-carboxamide] | 96 | 35 | 9 | 23.92 | 73.06 | 103.09 | 212 | – | – | – | – | – | 91 | – | 7 | – |
| COc1cccc(NC(=O)Nc2ccc(Nc3ncnc4sc(C(=O)NO)c(C)c34)cc2)c1 [Compound 7b, 1–(4-(6-(hydroxycarbamoyl)-5-methylthieno[2,3-d]pyrimidin-4-ylamino)phenyl)-3–(3-methoxyphenyl)urea] | 39 | 78 | 8 | 18.14 | 45.12 | 101.61 | > 200 | – | – | – | – | – | – | – | 6 | – |
| Cc1c(C(=O)NO)sc2ncnc(Nc3ccc(F)c(Cl)c3)c12 [Compound 15d, 4–(3-chloro-4-fluorophenylamino)-N-hydroxy-5-methylthieno[2,3-d]pyrimidine-6-carboxamide] | 97 | 54 | 7 | 24.43 | 43.45 | 101.50 | 320 | – | – | – | – | – | – | – | 4 | – |

Source: article PMC8253220, “Molecular design, synthesis and in vitro biological evaluation of thienopyrimidine–hydroxamic acids as chimeric kinase HDAC inhibitors: a challenging approach to combat cancer” (Journal of Enzyme Inhibition and Medicinal Chemistry, 2021)
